Experiments:
Sin3B expression = conditions: van Oevelen, et al. (2008) Mol. Cell. 32:359-370; cited from earlier work
[1] = system: IL-6 expression in BxPc3 human PDAC cells; test: Quantitative RT-PCR for IL-6 mRNA expression in BxPc3 pancreatic cancer cells; format: cell-based; conditions: BxPc3 cells treated 48 hours with 0.2 μM or 1 μM, relative to DMSO; FIG. 5
Protocol: (§1) Quantitative PCR for IL-1α and IL-6 mRNA expression in BxPc3 pancreatic cancer cell lines. BxPc3 has been treated 48 hours with vehicle DMSO, 0.2 μM (TSA 0.2) or 1 μM (TSA 1) of Trichostatin A. Sin3B and IL-1α mRNA expressions are relative to the expressions in DMSO (*p<0.05).
(§2) BxPc3 human pancreatic cancer cell lines are known in the art and available from American Type Culture Collection (ATCC, Manassas, Va.). Cells were cultured in RPMI, 10% FBS, Sodium Pyruvate, HEPES and Penicillin/[…]. The cultures were maintained in 5% CO2 at 37° C.
Extraction of total RNA from Pancreas and PDECs was performed using RNEASY mini kit (QIAGEN). For the pancreas, a piece was snap-frozen, ground, and the frozen powder was added to the RNEASY lysis buffer. Reverse transcription was done using Moloney murine leukemia virus polymerase and oligo(dT) primers. RT-PCR analyses were done using Tag DNA polymerase (5 Prime) and dNTP (Promega). Quantitative RT-PCR analyses were done using the SYBR Green method and the samples were run on the BIO-RAD I cycler MYIQ. Expression levels were normalized to GAPDH. Results were reported as relative to the abundance of mSin3B^+/− or mSin3^B+/− KRas^G12D transcripts. […]

[2] = system: IL-1α expression in BxPc3 human PDAC cells; test: Quantitative RT-PCR for IL-1α mRNA expression in BxPc3 pancreatic cancer cells; format: cell-based; conditions: BxPc3 cells treated 48 hours with 0.2 μM or 1 μM, relative to DMSO; FIG. 5, p<0.05
Protocol: Quantitative PCR for Sin3B (*p<0.005) and IL-1α (*p<0.05) mRNA expression in BxPc3 pancreatic cancer cell lines. BxPc3 were infected with an empty vector or a shRNA against Sin3B (shSin3B). ShSin3B mRNA expressions are relative to the empty vector expression.
as §1, §2
DNA sequences encoding shRNAs for Sin3B (shSin3B) were selected and cloned into the PLKO retroviral vector (Open Biosystem). BxPc3 cells were infected with shSin3B or PLKO for 3 days and selected in puromycin for 5 days. The level of Sin3B knockdown by shSin3B was determined by quantitative RT-PCR.
Extraction of total RNA from Pancreas and PDECs was performed using RNEASY mini kit (QIAGEN). […] Quantitative RT-PCR analyses were done using the SYBR Green method and the samples were run on the BIO-RAD I cycler MYIQ. […]

| Compound | Sin3B expression (Sin3B expression) | IL-6 expression after TSA treatment [1] | IL-1α expression after TSA treatment [2] |
| --- | --- | --- | --- |
| GGCAAUGGGUCGUGCGAGAUU (chemistry not given here) [SEQ ID NO:7] | inhibit Sin3B expression |  |  |
| GCAAAGCGGUCCCUGUUUAUU (listed as RNA, chemistry not given here) [SEQ ID NO:6] | inhibit Sin3B expression |  |  |
| CC(/C=C/C(=O)NO)=C\[C@@H](C)C(=O)c1ccc(N(C)C)cc1 [trichostatin A] |  | not significantly affected | specific and dose-dependent down-regulation |
